Results taken from patent publication US20250049970A1, “DLL3 TARGETING PEPTIDES AND CONSTRUCTS THEREOF” (MARIANA ONCOLOGY INC., priority 2023, published 2025).
*1 amine or outer side, *2 acyl side, *3 side chain or, on linkers, in order; H or OH if unused. Where a SMILES comes first, the peptide text is derived from it. Bridges are numbered along the chain shown (N, C = ends). [ ]: non-standard residue; d: D form. Trp(5-OH) = N[C@@H](Cc1c[nH]c2ccc(O)cc12)C(=O)O; Trp(7-aza) = N[C@@H](Cc1c[nH]c2ncccc12)C(=O)O; Trp(1-Me) = Cn1cc(C[C@H](N)C(=O)O)c2ccccc21; 1Nal = N[C@@H](Cc1cccc2ccccc12)C(=O)O; 2Nal = N[C@@H](Cc1ccc2ccccc2c1)C(=O)O; CH2 = C([*:1])[*:2]

molecular target: T1, DLL3 (Homo sapiens, UniProt Q9NYJ7); assay: SPR KD, biotinylated human DLL3 on streptavidin chip (Table 8); design: biotin (biotinylated); conditions: biotinylated human DLL3 on streptavidin sensor chip, 25° C., 1:1 binding model; read-out: SPR KD
T1 sequence (Q9NYJ7 27-618): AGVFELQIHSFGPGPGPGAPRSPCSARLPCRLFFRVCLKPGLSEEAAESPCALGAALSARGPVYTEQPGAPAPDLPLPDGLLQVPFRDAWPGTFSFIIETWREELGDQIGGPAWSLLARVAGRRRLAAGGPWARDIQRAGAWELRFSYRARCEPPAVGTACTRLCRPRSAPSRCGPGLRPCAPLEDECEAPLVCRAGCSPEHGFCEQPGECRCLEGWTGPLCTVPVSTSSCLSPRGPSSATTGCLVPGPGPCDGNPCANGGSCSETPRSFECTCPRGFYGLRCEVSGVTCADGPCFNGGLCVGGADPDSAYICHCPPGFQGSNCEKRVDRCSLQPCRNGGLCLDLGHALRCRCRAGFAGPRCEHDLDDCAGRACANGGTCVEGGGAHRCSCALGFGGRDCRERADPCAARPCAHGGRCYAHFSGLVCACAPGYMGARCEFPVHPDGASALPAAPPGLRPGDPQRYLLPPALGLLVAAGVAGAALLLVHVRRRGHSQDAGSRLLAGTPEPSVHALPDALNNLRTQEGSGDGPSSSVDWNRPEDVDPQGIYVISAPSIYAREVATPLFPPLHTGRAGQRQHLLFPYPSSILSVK
Excerpt: Biotinylated target ligand human DLL3 was immobilized on a streptavidin sensor chip. A reference surface was set up for nonspecific binding and refractive index changes. […] Sensorgram curves were fitted with 1:1 binding model, and affinity and kinetic parameters were obtained using Biacore Insight evaluation 4.0. software.

| Compound | Kd |
| --- | --- |
| CSCC[C@H](NC(C)=O)C(=O)N[C@@H](Cc1c[nH]c2ccccc12)C(=O)N[C@H](C(=O)N[C@@H](C)C(=O)N[C@H]1CSSC[C@@H](C(=O)N[C@@H](Cc2c[nH]c3ccccc23)C(=O)N2CCC[C@H]2C(N)=O)NC(=O)[C@H](CC(=O)O)NC(=O)[C@H](Cc2c[nH]cn2)NC(=O)[C@H](Cc2c[nH]c3ccccc23)NC(=O)[C@H](CC(N)=O)NC(=O)[C@H](CC(N)=O)NC1=O)[C@@H](C)O [compound 14, Ac-M-W-T-(L-Ala)-C(3)-N-N-W-H-D-C(3)-W-P-CONH2] (Ac-MWTACNNWHDCWP-NH2; disulfide 5-11) | 10 to 100 nM |
| CC[C@H](C)[C@H](NC(=O)[C@@H](NC(=O)[C@H](Cc1c[nH]c2ccccc12)NC(=O)[C@H](CCSC)NC(C)=O)[C@@H](C)O)C(=O)N[C@H]1CSSC[C@@H](C(=O)N[C@@H](Cc2c[nH]c3ccccc23)C(=O)N2CCC[C@H]2C(N)=O)NC(=O)[C@H](CC(=O)O)NC(=O)[C@H](Cc2cnc[nH]2)NC(=O)[C@H](Cc2c[nH]c3ccccc23)NC(=O)[C@H](CC(N)=O)NC(=O)[C@H](C)NC1=O [compound 15, Ac-M-W-T-I-C(3)-(L-Ala)-N-W-H-D-C(3)-W-P-CONH2] (Ac-MWTICANWHDCWP-NH2; disulfide 5-11) | 1 to 10 nM |
| CC[C@H](C)[C@H](NC(=O)[C@@H](NC(=O)[C@H](Cc1c[nH]c2ncccc12)NC(C)=O)[C@@H](C)O)C(=O)N[C@H]1CSSC[C@@H](C(=O)N[C@@H](Cc2c[nH]c3ccccc23)C(=O)N2CCC[C@H]2C(N)=O)NC(=O)[C@H](CC(=O)O)NC(=O)[C@H](Cc2cnc[nH]2)NC(=O)[C@H](Cc2c[nH]c3ccccc23)NC(=O)[C@H](CC(N)=O)NC(=O)[C@H](CC(N)=O)NC1=O [compound 24, Ac-(7Aza-W)-T-I-C(3)-N-N-W-H-D-C(3)-W-P-CONH2] (Ac-[Trp(7-aza)]TICNNWHDCWP-NH2; disulfide 4-10) | 10 to 100 nM |
| CC[C@H](C)[C@H](NC(=O)[C@@H](NC(=O)[C@H](Cc1cccc2ccccc12)NC(C)=O)[C@@H](C)O)C(=O)N[C@H]1CSSC[C@@H](C(=O)N[C@@H](Cc2c[nH]c3ccccc23)C(=O)N2CCC[C@H]2C(N)=O)NC(=O)[C@H](CC(=O)O)NC(=O)[C@H](Cc2cnc[nH]2)NC(=O)[C@H](Cc2c[nH]c3ccccc23)NC(=O)[C@H](CC(N)=O)NC(=O)[C@H](CC(N)=O)NC1=O [compound 25, Ac-(1Nal)-T-I-C(3)-N-N-W-H-D-C(3)-W-P-CONH2] (Ac-[1Nal]TICNNWHDCWP-NH2; disulfide 4-10) | 10 to 100 nM |
| CC[C@H](C)[C@H](NC(=O)[C@@H](NC(=O)[C@H](Cc1ccc2ccccc2c1)NC(C)=O)[C@@H](C)O)C(=O)N[C@H]1CSSC[C@@H](C(=O)N[C@@H](Cc2c[nH]c3ccccc23)C(=O)N2CCC[C@H]2C(N)=O)NC(=O)[C@H](CC(=O)O)NC(=O)[C@H](Cc2cnc[nH]2)NC(=O)[C@H](Cc2c[nH]c3ccccc23)NC(=O)[C@H](CC(N)=O)NC(=O)[C@H](CC(N)=O)NC1=O [compound 26, Ac-(2Nal)-T-I-C(3)-N-N-W-H-D-C(3)-W-P-CONH2] (Ac-[2Nal]TICNNWHDCWP-NH2; disulfide 4-10) | 10 to 100 nM |
| CC[C@H](C)[C@H](NC(=O)[C@@H](NC(=O)[C@H](Cc1c[nH]c2ccc(O)cc12)NC(C)=O)[C@@H](C)O)C(=O)N[C@H]1CSSC[C@@H](C(=O)N[C@@H](Cc2c[nH]c3ccccc23)C(=O)N2CCC[C@H]2C(N)=O)NC(=O)[C@H](CC(=O)O)NC(=O)[C@H](Cc2c[nH]cn2)NC(=O)[C@H](Cc2c[nH]c3ccccc23)NC(=O)[C@H](CC(N)=O)NC(=O)[C@H](CC(N)=O)NC1=O [compound 27, Ac-(5OH-W)-T-I-C(3)-N-N-W-H-D-C(3)-W-P-CONH2] (Ac-[Trp(5-OH)]TICNNWHDCWP-NH2; disulfide 4-10) | 10 to 100 nM |
| CC[C@H](C)[C@H](NC(=O)[C@@H](NC(=O)[C@H](Cc1c[nH]c2ccccc12)NC(=O)[C@H](CCSC)NC(C)=O)[C@@H](C)O)C(=O)N[C@H]1CSCSC[C@@H](C(=O)N[C@@H](Cc2c[nH]c3ccccc23)C(=O)N2CCC[C@H]2C(N)=O)NC(=O)[C@H](CC(=O)O)NC(=O)[C@H](Cc2cnc[nH]2)NC(=O)[C@H](Cc2c[nH]c3ccccc23)NC(=O)[C@H](CC(N)=O)NC(=O)[C@H](CC(N)=O)NC1=O [compound 32, Ac-M-W-T-I-C(1)-N-N-W-H-D-C(1)-W-P-CONH2] (Ac-MWTICNNWHDCWP-NH2; linker 5-11 via CH2) | 10 to 100 nM |
| CC[C@H](C)[C@H](NC(=O)[C@@H](NC(=O)[C@H](Cc1c[nH]c2ccccc12)NC(C)=O)[C@@H](C)O)C(=O)N[C@H]1CSSC[C@@H](C(=O)N[C@@H](Cc2c[nH]c3ccccc23)C(=O)N2CCC[C@H]2C(N)=O)NC(=O)[C@H](CC(=O)O)NC(=O)[C@H](Cc2c[nH]cn2)NC(=O)[C@H](Cc2c[nH]c3ncccc23)NC(=O)[C@H](CC(N)=O)NC(=O)[C@H](CC(N)=O)NC1=O [compound 33, Ac-W-T-I-C(3)-N-N-(7Aza-W)-H-D-C(3)-W-P-CONH2] (Ac-WTICNN[Trp(7-aza)]HDCWP-NH2; disulfide 4-10) | 10 to 100 nM |
| CC[C@H](C)[C@H](NC(=O)[C@@H](NC(=O)[C@H](Cc1c[nH]c2ccccc12)NC(=O)[C@H](CCSC)NC(C)=O)[C@@H](C)O)C(=O)N[C@H]1CSSC[C@@H](C(=O)N[C@@H](Cc2c[nH]c3ccccc23)C(=O)N2CCC[C@H]2C(N)=O)NC(=O)[C@H](CC(=O)O)NC(=O)[C@H](C)NC(=O)[C@H](Cc2c[nH]c3ccccc23)NC(=O)[C@H](CC(N)=O)NC(=O)[C@H](CC(N)=O)NC1=O [compound 36, Ac-M-W-T-I-C(3)-N-N-W-(L-Ala)-D-C(3)-W-P-CONH2] (Ac-MWTICNNWADCWP-NH2; disulfide 5-11) | 10 to 100 nM |
| CC[C@H](C)[C@H](NC(=O)[C@@H](NC(=O)[C@H](Cc1c[nH]c2ccccc12)NC(=O)[C@H](CCSC)NC(C)=O)[C@@H](C)O)C(=O)N[C@H]1CSSC[C@@H](C(=O)N[C@@H](Cc2c[nH]c3ccccc23)C(=O)N2CCC[C@H]2C(N)=O)NC(=O)[C@H](C)NC(=O)[C@H](Cc2cnc[nH]2)NC(=O)[C@H](Cc2c[nH]c3ccccc23)NC(=O)[C@H](CC(N)=O)NC(=O)[C@H](CC(N)=O)NC1=O [compound 37, Ac-M-W-T-I-C(3)-N-N-W-H-(L-Ala)-C(3)-W-P-CONH2] (Ac-MWTICNNWHACWP-NH2; disulfide 5-11) | 10 to 100 nM |
| CC[C@H](C)[C@H](NC(=O)[C@@H](NC(=O)[C@H](Cc1c[nH]c2ccccc12)NC(=O)[C@H](CCSC)NC(C)=O)[C@@H](C)O)C(=O)N[C@H]1CSSC[C@@H](C(=O)N[C@@H](Cc2c[nH]c3ccccc23)C(=O)N2CCC[C@H]2C(N)=O)NC(=O)[C@H](CC(=O)O)NC(=O)[C@H](Cc2cnc[nH]2)NC(=O)[C@H](Cc2c[nH]c3ccccc23)NC(=O)[C@H](C)NC(=O)[C@H](CC(N)=O)NC1=O [compound 38, Ac-M-W-T-I-C(3)-N-(L-Ala)-W-H-D-C(3)-W-P-CONH2] (Ac-MWTICNAWHDCWP-NH2; disulfide 5-11) | 10 to 100 nM |
| CC[C@H](C)[C@H](NC(=O)[C@@H](NC(=O)[C@H](Cc1c[nH]c2ccccc12)NC(=O)[C@H](CCSC)NC(C)=O)[C@@H](C)O)C(=O)N[C@H]1CSSC[C@@H](C(=O)N[C@@H](Cc2c[nH]c3ccccc23)C(=O)N2CCC[C@H]2C(N)=O)NC(=O)[C@H](CC(=O)O)NC(=O)[C@H](Cc2cnc[nH]2)NC(=O)[C@H](Cc2c[nH]c3ccccc23)NC(=O)[C@@H](C)NC(=O)[C@H](CC(N)=O)NC1=O [compound 39, Ac-M-W-T-I-C(3)-N-(D-Ala)-W-H-D-C(3)-W-P-CONH2] (Ac-MWTICN[dA]WHDCWP-NH2; disulfide 5-11) | 10 to 100 nM |
| CC[C@H](C)[C@H](NC(=O)[C@@H](NC(=O)[C@H](Cc1cn(C)c2ccccc12)NC(=O)[C@H](CCSC)NC(C)=O)[C@@H](C)O)C(=O)N[C@H]1CSSC[C@@H](C(=O)N[C@@H](Cc2c[nH]c3ccccc23)C(=O)N2CCC[C@H]2C(N)=O)NC(=O)[C@H](CC(=O)O)NC(=O)[C@H](Cc2cnc[nH]2)NC(=O)[C@H](Cc2c[nH]c3ccccc23)NC(=O)[C@H](CC(N)=O)NC(=O)[C@H](CC(N)=O)NC1=O [compound 41, Ac-M-(1Me-W)-T-I-C(3)-N-N-W-H-D-C(3)-W-P-CONH2] (Ac-M[Trp(1-Me)]TICNNWHDCWP-NH2; disulfide 5-11) | 10 to 100 nM |
| CC[C@H](C)[C@H](NC(=O)[C@@H](NC(=O)[C@H](Cc1c[nH]c2ccccc12)NC(=O)[C@H](CCSC)NC(C)=O)[C@@H](C)O)C(=O)N[C@H]1CSSC[C@@H](C(=O)N[C@@H](Cc2c[nH]c3ccccc23)C(=O)N2CCC[C@H]2C(N)=O)NC(=O)[C@H](CC(=O)O)NC(=O)[C@H](Cc2cnc[nH]2)NC(=O)[C@H](Cc2cn(C)c3ccccc23)NC(=O)[C@H](CC(N)=O)NC(=O)[C@H](CC(N)=O)NC1=O [compound 42, Ac-M-W-T-I-C(3)-N-N-(1Me-W)-H-D-C(3)-W-P-CONH2] (Ac-MWTICNN[Trp(1-Me)]HDCWP-NH2; disulfide 5-11) | 10 to 100 nM |
| CC[C@H](C)[C@H](NC(=O)[C@@H](NC(=O)[C@H](Cc1c[nH]c2ccccc12)NC(=O)[C@H](CCSC)NC(C)=O)[C@@H](C)O)C(=O)N[C@H]1CSSC[C@@H](C(=O)N[C@@H](Cc2cn(C)c3ccccc23)C(=O)N2CCC[C@H]2C(N)=O)NC(=O)[C@H](CC(=O)O)NC(=O)[C@H](Cc2c[nH]cn2)NC(=O)[C@H](Cc2c[nH]c3ccccc23)NC(=O)[C@H](CC(N)=O)NC(=O)[C@H](CC(N)=O)NC1=O [compound 43, Ac-M-W-T-I-C(3)-N-N-W-H-D-C(3)-(1Me-W)-P-CONH2] (Ac-MWTICNNWHDC[Trp(1-Me)]P-NH2; disulfide 5-11) | 10 to 100 nM |
